Experiment [1] concerns fasting glycemia (blood-glucose concentration). Nature of the experiment: threshold dose of blood-sugar-lowering activity in fasting guinea pigs. Format: in vivo. The following applies: Cavia porcellus, ip; guinea pig, i.p., potassium salt, pH 7.4; significant lowering of fasting glycemia (p<0.05), N=4 per dose group. As to the method:
(§1) To establish the pharmacological properties of the compounds in accordance with the invention, blood-sugar-lowering activity and resorption inhibition were determined in separate tests and compared with two structurally related compounds.
Fasting guinea pigs were used as experimental model to determine the threshold dose of the blood-lowering activity of the substances to be investigated. Food was withheld from the individual animals used in the investigation for 16 hours prior to the start of the tests. The animals were kept unfed throughout the testing period but had free access to drinking water.
The substances were administered through intraperitoneal injection of a solution of the potassium salt at pH 7.4.
A control group carried along in parallel was given an 0.9% NaCl solution.
The drawing of blood for determination of the glucose concentrations was effected immediately prior to administration of the substances and at one-hour intervals up to the fourth hour after the administration of the substances. To this end, an ear vein was carefully punctured with a No. 18 cannula, and the drops of blood issuing were picked up with a 10 μl capillary.
The blood-glucose concentration was determined in the hemolysate by the specific hexokinase method. To this end, the 10 μl blood sample was pipetted into a stabilizer solution containing digitonin as hemolysis accelerator and maleinimide as glycolysis inhibitor. Following this, an aliquot was taken from the hemolysate so obtained and determined by the hexokinase method on an LKB 8600 (made by LKB, Bromma, Sweden).
The dose which with the specified number of test animals per dose group (N=4) was just large enough to produce a significant lowering of fasting glycemia (p<0.05) was adopted as threshold dose.

Another experiment concerns glucose resorption. Nature of the experiment: resorption-inhibiting activity (oral glucose loading) in fasting guinea pigs. Type of experiment: in vivo. The following applies: Cavia porcellus, PIG1, ip, guinea pig, 1 g glucose p.o., AUC difference vs control; for inhibition in vivo at 20 mg/kg: dose 20 mg/kg i.p.; for inhibition in vivo at 40 mg/kg: dose 40 mg/kg i.p.; for inhibition in vivo at 10 mg/kg: dose 10 mg/kg i.p. As to the method:
as §1
To determine the effect on glucose resorption, oral glucose loading was effected. To this end, the substance to be tested was administered intraperitoneally as potassium salt, as described, to a group of ten fasting guinea pigs. At the same time, 1 g glucose was orally administered to the animals as a 20% solution by means of an esophageal bougie.
After a preliminary value has been established, up to […] blood was taken from the animals at close (20-minute) intervals for determination of the glucose concentrations, as described.
A control group carried along in parallel also was given 1 g glucose p.o., and intraperitoneally a corresponding amount of 0.9% NaCl solution.
The blood-glucose concentration was determined in the hemolysate by the hexokinase method, as described.
With regard to glucose resorption, the area under the concentration/time curve, calculated by means of the empirical trapeze formula, served as quantity to be measured. The difference in the area between the control and test groups, expressed in percent, was used as a measure for the inhibition of glucose resorption.

Experimental findings from patent publication US4387104A, “N-Substituted pyruvic acid hydrazones, preparation thereof and pharmaceutical compositions containing them” (Boehringer Mannheim GmbH, priority 1980, dated 1983) are described below.

Structures are written as SMILES.

As a reminder, the minimal effective dose is the lowest level tested that produced the effect sought. For orientation: inhibition in vivo means the change of the read-out against control, counted positive when it falls. In the case of `COCCCCCCNN=C(C)C(=O)O` [Example 3a, 2-(6-methoxyhexylhydrazono)-propionic acid], in experiment [1], the minimal effective dose stood at 20 mg/kg. Further, the inhibition in vivo at 20 mg/kg with glucose resorption turned out to be 11%.
Taken in the same sequence, the figures for `CCOCCCCCNN=C(C)C(=O)O` [Example 3b, 2-(5-ethoxypentylhydrazono)-propionic acid] were 20 to 25 mg/kg and 34%.
Turning to `CC(=NNCCOCCC1CCCCC1)C(=O)O` [Example 3d, 2-[2-(2-cyclohexylethoxy)-ethylhydrazono]-propionic acid], the minimal effective dose in experiment [1] is more than 50 mg/kg. The same molecule returned an inhibition in vivo at 40 mg/kg in the experiment on glucose resorption of 15%.
As to `COCCSCCNN=C(C)C(=O)O` [Example 3f, 2-[2-(2-methoxyethylthio)-ethylhydrazono]-propionic acid], in experiment [1], the minimal effective dose worked out at 25 mg/kg. The molecule further came in with an inhibition in vivo at 20 mg/kg with glucose resorption of 17.3%.
For `CC(=NNCCSc1ccccc1)C(=O)[O-].[Na+]` [Example 2d, sodium 2-(2-phenylthioethylhydrazono)-propionate], the minimal effective dose in experiment [1] is 25 to 50 mg/kg. Moreover, testing at 40 mg/kg with glucose resorption gave an inhibition in vivo of 33%.
For the molecule `CC(=NNCCCOCc1ccccc1)C(=O)O` [Example 3e, 2-(3-benzyloxypropylhydrazono)-propionic acid], in experiment [1], the minimal effective dose is more than 50 mg/kg. Also, the inhibition in vivo at 40 mg/kg in the experiment on glucose resorption is 44%.
Take `CC(=NNCCOc1ccc(C)cc1)C(=O)O` [Example 1, 2-(2-p-Tolyloxyethylhydrazono)-propionic acid]: the minimal effective dose in experiment [1] amounted to 25 mg/kg. In the experiment on glucose resorption, this molecule displayed an inhibition in vivo at 40 mg/kg of 25%.
In the same order, the values of `CC(=NNCCOc1ccccc1)C(=O)O` [Example 1b, 2-(2-phenoxyethylhydrazono)-propionic acid] are 25 mg/kg and 98%.
On to `CC(=NNCCC1CCCCC1)C(=O)O` [B, 2-(2-cyclohexylethylhydrazono)-propionic acid, reference compound], for which the minimal effective dose in experiment [1] worked out at 15 mg/kg. Besides, in the experiment on glucose resorption (dose 15 mg/kg i.p.), the inhibition in vivo at 15 mg/kg came out at 0%.
For the molecule `CC(=NNCCOCc1ccccc1)C(=O)[O-].[Na+]` [Example 2b, sodium 2-(2-benzyloxyethylhydrazono)-propionate], the minimal effective dose in experiment [1] is more than 50 mg/kg. This molecule yielded an inhibition in vivo at 40 mg/kg in the experiment with glucose resorption of 49.9%.
Consider `C=CCOCCNN=C(C)C(=O)O` [Example 3, 2-(2-Allyloxyethylhydrazono)-propionic acid], for which the minimal effective dose in experiment [1] is 25 mg/kg. In the experiment on glucose resorption, this molecule gave an inhibition in vivo at 20 mg/kg of 9%.
`COCCOCCNN=C(C)C(=O)[O-].[Na+]` [Example 2a, sodium 2-[2-(2-methoxyethoxy)-ethylhydrazono]-propionate]: the minimal effective dose in experiment [1] is more than 50 mg/kg. This molecule also gave an inhibition in vivo at 40 mg/kg in the experiment with glucose resorption of 37%.
Regarding `C=CCSCCNN=C(C)C(=O)[O-].[Na+]` [Example 2c, sodium 2-(2-allylthioethylhydrazono)-propionate], the minimal effective dose in experiment [1] fell in the range of 10 to 25 mg/kg. In the experiment on glucose resorption, the inhibition in vivo at 10 mg/kg came out at 16%.
Taken in the same sequence, the figures for `CC(=NNCCc1ccccc1)C(=O)O` [A, 2-(phenethylhydrazono)-propionic acid, reference compound] were 10 to 15 mg/kg and 0%.
